# Data taken from patent publication US12678458B2, “Antiseptic composition” (BOBS SILVER, priority 2020, dated 2026).
# Tests used:
# [1] = tested on: HRV-A16; details: well-known antiviral compound; cited from earlier work
# [2] = tested on: Staphylococcus aureus subsp. aureus ATCC-6538 (NBIMCC 3359); assay: Agar diffusion test, inhibitory zones; type: cell-based; details: S. aureus; 0.1 ml in 9 mm wells
# [3] = tested on: Total Gram-negative; assay: Agar diffusion test, inhibitory zones; type: cell-based
# [4] = tested on: Streptococcus pyogenes; assay: Minimum inhibitory concentrations, two-fold serial dilution in agar; type: cell-based; details: S. pyogenes
# [5] = tested on: Total Gram-positive; assay: organism not typed; type: cell-based
# [6] = tested on: Total bacteria; assay: Minimum inhibitory concentrations, two-fold serial dilution in agar; type: cell-based
# [7] = tested on: Salmonella enterica subsp. enterica ATCC 1304 (NBIMCC 8691); assay: Agar diffusion test, inhibitory zones; type: cell-based; details: S. enterica; 0.1 ml in 9 mm wells
# [8] = tested on: Salmonella enterica; assay: microbe, parasite or virus in culture; type: cell-based
# [9] = tested on: Pseudomonas aeruginosa; assay: Agar diffusion test, inhibitory zones; type: cell-based; details: P. aeruginosa; 0.1 ml in 9 mm wells
# [10] = tested on: Candida albicans; assay: Minimum inhibitory concentrations, two-fold serial dilution in agar; type: cell-based; details: C. albicans
# [11] = tested on: Total (all microorganisms); assay: as above; type: cell-based
# [12] = tested on: Total (all microorganisms); assay: Agar diffusion test, inhibitory zones; type: cell-based
# [13] = tested on: Pseudomonas aeruginosa; assay: Minimum inhibitory concentrations, two-fold serial dilution in agar; type: cell-based; details: P. aeruginosa
# [14] = tested on: Total bacteria; assay: Agar diffusion test, inhibitory zones; type: cell-based
# [15] = tested on: Candida albicans ATCC 10231 (NBIMCC 74); assay: Agar diffusion test, inhibitory zones; type: cell-based; details: C. albicans; 0.1 ml in 9 mm wells
# [16] = tested on: Staphylococcus aureus; assay: Minimum inhibitory concentrations, two-fold serial dilution in agar; type: cell-based; details: S. aureus
# [17] = tested on: Esherichia coli ATCC-8739 (NBIMCC 3397); assay: Agar diffusion test, inhibitory zones; type: cell-based, Escherichia coli; details: E. coli; 0.1 ml in 9 mm wells
# [18] = tested on: Clostridium perfringens; assay: microbe, parasite or virus in culture; type: cell-based
# [19] = tested on: Esherichia coli; assay: Minimum inhibitory concentrations, two-fold serial dilution in agar; type: cell-based, Escherichia coli; details: E. coli
# [20] = tested on: Total Gram-negative; assay: organism not typed; type: cell-based
# [21] = tested on: Streptococcus pyogenes; assay: Agar diffusion test, inhibitory zones; type: cell-based; details: S. pyogenes; 0.1 ml in 9 mm wells
# [22] = tested on: Clostridium perfringens ATCC 13124 (NBIMCC 8615); type: cell-based; details: C. perfringens; 0.1 ml in 9 mm wells
# [23] = tested on: Total Gram-positive bacteria; type: cell-based
structure (smiles),measurement,setting,value
CCOC(=O)/C=C/[C@H](C[C@@H]1CCNC1=O)NC(=O)[C@@H](CC(=O)[C@@H](NC(=O)c1cc(C)on1)C(C)C)Cc1ccc(F)cc1 [rupintrivir],antiviral response,[1],almost complete response
"CS(=O)(=O)c1ccc([C@@H](O)[C@@H](CO)NC(=O)C(Cl)Cl)cc1 [Thiamphenicol, thiamphenicol]",Inhibitory zones in mm,[2],25.7 ± 3.3 mm
same,Inhibitory zones in mm,[3],35.4 ± 0.5 mm
same,Th D,[4],128 µg/mL
same,MIC50,"[4]; Streptococcus pyogenes, read-out: Th MIC50",32 µg/mL
same,Th D,[5],42.00 µg/mL
same,MIC50,[5]; read-out: Th MIC50,21 µg/mL
same,Th D,[6],66.7 µg/mL
same,MIC50,"[6]; Total bacteria, read-out: Th MIC50",14 µg/mL
same,Inhibitory zones in mm,[7],35.3 ± 0.8 mm
same,Th D,[8]; S. enterica,64 µg/mL
same,MIC50,"[8]; Salmonella enterica, read-out: Th MIC50",16 µg/mL
same,Inhibitory zones in mm,[9],34.8 ± 0.8 mm
same,Th D,[10],128 µg/mL
same,MIC50,"[10]; Candida albicans, read-out: Th MIC50",32 µg/mL
same,Th D,[11],84.00 µg/mL
same,MIC50,"[11]; Total (all microorganisms), read-out: Th MIC50",16.6 µg/mL
same,Inhibitory zones in mm,[12],29.7 ± 5.3 mm
same,Th D,[13],64 µg/mL
same,MIC50,"[13]; Pseudomonas aeruginosa, read-out: Th MIC50",8 µg/mL
same,Inhibitory zones in mm,[14],29.9 ± 5.7 mm
same,Inhibitory zones in mm,[15],28.7 ± 3.7 mm
same,Th D,[16],64 µg/mL
same,MIC50,"[16]; Staphylococcus aureus, read-out: Th MIC50",16 µg/mL
same,Inhibitory zones in mm,[17],36.0 ± 0.8 mm
same,Th D,[18]; C. perfringens,16 µg/mL
same,MIC50,"[18]; Clostridium perfringens, read-out: Th MIC50",4 µg/mL
same,Th D,[19],64 µg/mL
same,MIC50,"[19]; Escherichia coli, read-out: Th MIC50",8 µg/mL
same,Th D,[20],64.00 µg/mL
same,MIC50,[20]; read-out: Th MIC50,10.7 µg/mL
same,Inhibitory zones in mm,[21],26.0 ± 4.5 mm
same,Inhibitory zones in mm,[22],21.3 ± 0.5 mm
same,Inhibitory zones in mm,[23],24.3 ± 2.1 mm
